From patent US20100285583A1, “COMPOUNDS AND METHODS FOR INHIBITING PLATELET AGGREGATION” (priority 2009, published 2010)
Values belong to the compound of their own block, whether it stands above or below them.

Tests used:
N-PTB domain = biological target: T1, N-PTB domain (Homo sapiens, UniProt P98082, A82R); assay: Protein-lipid overlay competition assay; format: binding; conditions: pre-incubation with 10-fold excess of lipid
T1 construct: The N-PTB domain (residues 1-241) cDNA construct was cloned into a pGEX6P1 vector; made in house; host or cells: E. coli Rosetta
T1 sequence (P98082 1-241 A82R): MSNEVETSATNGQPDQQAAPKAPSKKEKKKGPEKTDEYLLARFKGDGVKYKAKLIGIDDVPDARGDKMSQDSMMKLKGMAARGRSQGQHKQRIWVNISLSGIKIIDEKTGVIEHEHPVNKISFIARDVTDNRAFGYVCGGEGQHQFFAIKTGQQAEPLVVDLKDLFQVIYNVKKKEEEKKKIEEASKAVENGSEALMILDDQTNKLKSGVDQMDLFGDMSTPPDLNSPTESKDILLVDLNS
Description: Membrane strips (SphingoStrips™) spotted with 100 pmol of sphingolipids were purchased from Echelon Research Laboratories. Membrane strips were incubated with 0.1 μg/ml of the Dab2 PTB domain or its mutants in 20 mM Tris-HCl (pH 8.0), 150 mM NaCl, 0.1% Tween-20 and 3% fatty acid-free bovine serum albumin overnight at 4° C. Following four washes with the same buffer, proteins bound to the membrane strips were probed with rabbit anti-GST antibody (Santa Cruz Biotech). Donkey anti rabbit-horse radish peroxidase (HRP) antibody was obtained from GE Healthcare. Detection was carried out using ECL reagent (Pierce). Also, lipid strips were prepared by spotting 1 μl of either sulfatides or PtdIns(4,5)P2 dissolved in chloroform:methanol:water (1:2:0.8 and 65:35:8, respectively) onto Hybond-C extra membranes (GE Healthcare) and protein binding was monitored as described above. Bound protein was quantified using the AlphaImager program and binding was calculated as a percentage of GST-PTB binding to 100 pmoles of spotted lipid.
We next asked whether sulfatides and PtdIns(4,5)P2 compete with each other for binding to the N-PTB domain using a protein-lipid overlay competition assay. […] This observation was further confirmed by competing sulfatides and PtdIns(4,5)P2 for N-PTB domain binding using SPR. […]

[1] = tested on: T2, Dab2 N-terminal phosphotyrosine binding domain (N-PTB, residues 1-241 of human Disabled-2), wild type
T2 sequence: T1 sequence (P98082 1-241 A82R)

Human washed platelets = assay: Platelet immunofluorescence analysis (subcellular localization); format: cell-based; conditions: activated platelets in presence of inhibitor
Description: Washed platelets (50 μl of […] in Tyrode's albumin buffer) were incubated with 1.9 μM of PTB domain constructs for 5 min at room temperature in the presence of 0.25 g/L fibrinogen. Aggregation was initiated by the addition of 10 μM TRAP. Reactions were incubated at room temperature unless otherwise indicated. Platelets were fixed with 0.4 mL of 3.7% formaldehyde in Phosphate Buffered Saline (PBS) for 30 min. Next, 20% goat serum was added to the fixed platelets, and 60% of the total fixed reaction was centrifuged using a Shandon cytospinner onto a Shandon coated cytoslide to achieve the appropriate platelet density for analysis. Slides were then washed twice with PBS for 10 min. Platelets were permeabilized with 0.5% Triton X-100 in PBS for 10 min and then blocked with 20% goat serum in PBS with 0.1% Triton X-100 for 1 h at room temperature. Platelets were washed 3 times with PBS with 0.1% Triton for 10 minutes and further incubated overnight with the anti-Dab2 antibody 1:100 (anti-p96; BD Transduction) in PBS with 0.1% Triton X-100 and 10% goat serum at 4° C. in a humidity chamber. Platelets were then washed and incubated with the anti-mouse Cy-3 conjugated goat antibody 1:250 and Alexa488 conjugated phalloidin (25 μg/mL) in PBS with 0.1% Triton X-100 and 10% goat serum for 2 h. Platelets were washed again and observed on an Olympus IX71 microscope using the Softworx Applied Precision software.
Mean pixel intensity was determined for 400 platelets from four fields each for 3 min and 10 min of treatments by manually drawing circles around individual platelets using the 2D Polygon tool in the Softworx software. For each time point, a threshold of significant mean pixel intensity was defined for the experiment. The percentage of countable platelets to exceed the threshold was calculated for each field and the average of four fields was computed with standard deviation. The ratio of internalization:binding is the quotient of these averages for a treatment.

reduction of sulfatide binding of N-PTB domain (N-PTB domain): at least 60%
Compound: phosphatidylinositol 4,5-bisphosphate [PtdIns(4,5)P2]

competition with sulfatide for PTB binding (N-PTB domain): did not compete
Compound: CCCCCCCCCCCCCCCC(=O)OC[C@H](COP(=O)(O)O[C@@H]1[C@H](O)[C@H](OP(=O)(O)O)[C@@H](O)[C@H](O)[C@H]1O)OC(=O)CCCCCCCCCCCCCCC [PtdIns(3)P, phosphatidylinositol 3-phosphate]

Compound: thrombin
thrombin proteolysis of the N-PTB domain (FIG. 3B) [1]: thrombin cleaved the N-PTB domain leaving a ˜25 kW protease-resistant product

Compound: C=C1[C@@H](C)[C@H]2[C@H](Cc3ccccc3)NC(=O)[C@]23[C@H](OC(C)=O)/C=C/[C@@](C)(O)C(=O)[C@@H](C)C/C=C/[C@H]3[C@@H]1O [cytochalasin D, reference compound]
effect on N-PTB domain internalization (Human washed platelets): completely blocked N-PTB domain internalization

Compound: CN(C)CCCN1c2ccccc2Sc2ccc(Cl)cc21 [chlorpromazine, reference compound]
effect on N-PTB domain internalization (Human washed platelets): inhibited
